We go through ten compounds from patent publication US9855268B2, “Triazolo[4,5-d]pyrimidine derivatives” (Merck Patent GmbH, priority 2013, dated 2018).

The target in experiment [1] is T1, GCN2 (Homo sapiens, UniProt Q9P2K8). Briefly: GCN2 enzyme assay (TR-FRET Lanthascreen, GFP-eIF2alpha phosphorylation). Type of experiment: biochemical. Particulars: 10 μM ATP, 80 nM GFP-eIF2a, 30 nM GCN2. In short, it runs like this: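 Phosphorylation of GFP-eIF2alpha (80 nM) by GCN2 run at room temperature with 10 μM ATP. After EDTA quench, product quantified by Lanthascreen TR-FRET (antibody–GFP complex, 340 nm excitation).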
Target sequence in this assay (Q9P2K8 whole entry, species assumed): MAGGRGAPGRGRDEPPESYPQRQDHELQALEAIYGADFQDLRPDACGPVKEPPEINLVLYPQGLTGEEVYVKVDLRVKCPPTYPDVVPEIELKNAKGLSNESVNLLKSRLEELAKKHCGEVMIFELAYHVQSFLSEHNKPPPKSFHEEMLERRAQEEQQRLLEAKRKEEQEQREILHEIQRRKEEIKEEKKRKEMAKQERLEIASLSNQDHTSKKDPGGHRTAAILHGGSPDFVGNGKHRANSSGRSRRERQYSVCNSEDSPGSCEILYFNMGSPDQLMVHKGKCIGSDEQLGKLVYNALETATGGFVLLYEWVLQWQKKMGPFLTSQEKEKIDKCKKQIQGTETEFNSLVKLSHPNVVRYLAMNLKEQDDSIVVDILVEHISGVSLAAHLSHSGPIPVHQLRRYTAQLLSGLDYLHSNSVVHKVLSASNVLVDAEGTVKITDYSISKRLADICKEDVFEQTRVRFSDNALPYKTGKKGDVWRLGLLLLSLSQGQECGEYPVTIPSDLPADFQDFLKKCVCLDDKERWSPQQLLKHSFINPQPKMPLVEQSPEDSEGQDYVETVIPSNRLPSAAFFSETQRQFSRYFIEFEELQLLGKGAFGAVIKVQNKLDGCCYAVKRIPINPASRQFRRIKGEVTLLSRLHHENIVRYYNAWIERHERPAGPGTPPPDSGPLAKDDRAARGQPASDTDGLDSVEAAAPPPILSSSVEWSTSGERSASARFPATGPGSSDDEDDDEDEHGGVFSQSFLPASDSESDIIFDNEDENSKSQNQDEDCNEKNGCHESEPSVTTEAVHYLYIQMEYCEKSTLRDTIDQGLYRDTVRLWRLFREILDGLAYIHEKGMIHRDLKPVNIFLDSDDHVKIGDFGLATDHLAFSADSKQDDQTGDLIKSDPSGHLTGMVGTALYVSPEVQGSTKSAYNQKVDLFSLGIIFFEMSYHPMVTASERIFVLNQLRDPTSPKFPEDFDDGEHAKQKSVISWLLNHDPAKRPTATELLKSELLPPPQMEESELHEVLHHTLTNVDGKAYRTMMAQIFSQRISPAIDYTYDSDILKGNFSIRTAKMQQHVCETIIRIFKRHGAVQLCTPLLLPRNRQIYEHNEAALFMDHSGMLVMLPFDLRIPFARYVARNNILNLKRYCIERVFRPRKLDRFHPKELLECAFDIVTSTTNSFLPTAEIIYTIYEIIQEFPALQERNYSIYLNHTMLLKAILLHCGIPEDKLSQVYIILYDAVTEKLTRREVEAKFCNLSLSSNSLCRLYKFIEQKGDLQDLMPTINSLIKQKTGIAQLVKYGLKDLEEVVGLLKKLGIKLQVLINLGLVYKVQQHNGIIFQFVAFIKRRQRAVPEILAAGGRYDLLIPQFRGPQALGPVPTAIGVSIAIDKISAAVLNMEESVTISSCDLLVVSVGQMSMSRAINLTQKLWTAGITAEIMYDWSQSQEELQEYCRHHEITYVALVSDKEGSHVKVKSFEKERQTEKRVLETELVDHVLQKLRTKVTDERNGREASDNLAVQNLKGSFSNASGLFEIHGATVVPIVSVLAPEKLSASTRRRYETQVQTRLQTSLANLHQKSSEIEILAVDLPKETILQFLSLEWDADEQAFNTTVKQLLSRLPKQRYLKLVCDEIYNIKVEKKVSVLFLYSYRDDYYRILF

In a further experiment the target is GSK3α(h) (Homo sapiens, UniProt P49840). Briefly: GSK3α radiometric kinase assay (33P-ATP, phospho GS2 peptide). The conditions noted are these: read-out: IC50 GSK3α (enzyme assay). Type of experiment: biochemical. The gist of the method: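 Human GSK3α incubated with 20 μM phospho-GS2 peptide in 8 mM MOPS pH 7,0, 10 mM Mg-acetate and [γ-33P]ATP (concentration as required), started with MgATP. After 40 minutes at room temperature, stopped with phosphoric acid; 33P incorporation measured by filtermat spotting and scintillation counting.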

Experiment [2] concerns the target T1, GCN2. Briefly: Cellular assay of GCN2 activity (phospho-eIF2alpha immunocytochemistry after tryptophanol). Type of experiment: cell-based. The arrangement: endogenous in cells; host or cells: U2OS. Particulars: Human U2OS cells, 2 h compound, 600 μM tryptophanol 30 min. The protocol:
Cellular Assay for the Determination of Compound Activities
Human U2OS cells (2000 cells/well) are seeded into 384-well plates and incubated for 20 hours.
The next day, the cells are treated with the test compounds and incubated for 2 hours. Then, tryptophanol, at a final concentration of 600 μM, is added to the cells and those are incubated for 30 minutes.
The analysis of cellular GCN2 activities is done by immunocytochemistry.
Briefly, cells are fixated on the well surfaces by formaldehyde and permeabilised with Triton X-100.
The analysis and quantification of phosphorylated GCN2 is done by scanning the plates in the Acumen Explorer system (TTPLabtech). The obtained data are normalised against the untreated control wells (DMSO only) and expressed as % effect values. The determination of IC50 values is done by using the Graph Pad Prism software.
Target sequence in this assay (Q9P2K8 whole entry): as the sequence (Q9P2K8 whole entry, species assumed) above

Chain of GSK3α(h) (P49840 whole entry): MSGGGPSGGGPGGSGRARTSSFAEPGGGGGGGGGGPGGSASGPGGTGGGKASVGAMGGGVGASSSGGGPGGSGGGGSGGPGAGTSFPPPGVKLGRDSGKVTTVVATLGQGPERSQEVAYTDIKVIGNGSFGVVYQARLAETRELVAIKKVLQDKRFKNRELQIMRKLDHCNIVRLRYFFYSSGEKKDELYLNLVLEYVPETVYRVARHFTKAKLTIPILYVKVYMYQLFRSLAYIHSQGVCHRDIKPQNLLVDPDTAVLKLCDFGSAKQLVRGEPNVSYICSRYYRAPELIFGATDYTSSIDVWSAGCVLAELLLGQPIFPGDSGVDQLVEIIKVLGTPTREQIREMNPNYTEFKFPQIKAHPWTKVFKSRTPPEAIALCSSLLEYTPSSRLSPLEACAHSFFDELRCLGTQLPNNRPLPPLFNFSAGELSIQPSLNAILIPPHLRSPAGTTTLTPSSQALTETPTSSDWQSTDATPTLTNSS

For the compound `Cn1cc(-c2ccc(-n3nnc4cnc(N[C@H]5CC[C@H](N)CC5)nc43)cc2)cn1` [A129, N-{3-[4-(1-methyl-1H-pyrazol-4-yl)-phenyl]-3H-[1,2,3]triazolo[4,5-d]pyrimidin-5-yl}-trans-cyclohexane-1,4-diamine], the IC50 at GCN2 [1] was < 1000 nM; on GSK3α(h), < 1000 nM; against GCN2 [2], 1000 to 5000 nM.

`CN(C)CCC(=O)N1CC[C@@H](Nc2ncc3nnn(-c4ccc(-c5cnn(C)c5)cc4)c3n2)C1` [A130, 3-dimethylamino-1-((R)-3-{3-[4-(1-methyl-1H-pyrazol-4-yl)-phenyl]-3H-[1,2,3]triazolo[4,5-d]pyrimidin-5-ylamino}-pyrrolidin-1-yl)-propan-1-one]: the IC50 on GCN2 [1] was < 1000 nM; on GSK3α(h) it was < 1000 nM; on GCN2 [2] it was 5000 to 10000 nM.

Consider `CN1CCN(CCC(=O)N2CC[C@@H](Nc3ncc4nnn(-c5ccc(-c6cnn(C)c6)cc5)c4n3)C2)CC1` [A131, 3-(4-methyl-piperazin-1-yl)-1-((R)-3-{3-[4-(1-methyl-1H-pyrazol-4-yl)-phenyl]-3H-[1,2,3]triazolo[4,5-d]pyrimidin-5-ylamino}-pyrrolidin-1-yl)-propan-1-one], for which the IC50 against GCN2 [1] is < 1000 nM; on GSK3α(h), < 1000 nM; against GCN2 [2] it was 5000 to 10000 nM.

Take `COc1ccc(-n2nnc3cnc(N[C@@H]4CC[C@@H](C(N)=O)C4)nc32)cc1` [A140, (1R,3R)-3-[3-(4-methoxy-phenyl)-3H-[1,2,3]triazolo[4,5-d]pyrimidin-5-ylamino]-cyclopentanecarboxylic acid amide]: the 50% inhibitory concentration (IC50) is < 1000 nM at GCN2 [1], < 1000 nM at GSK3α(h) and 1000 to 5000 nM on GCN2 [2].

Take `Cc1nc2ccc(-n3nnc4cnc(N[C@@H]5CC[C@H](C(N)=O)C5)nc43)cc2o1` [A141, (1S,3R)-3-[3-(2-methyl-benzoxazol-6-yl)-3H-[1,2,3]triazolo[4,5-d]pyrimidin-5-ylamino]-cyclopentanecarboxylic acid amide]: the results for the IC50 against GCN2 [1], on GSK3α(h) and at GCN2 [2] were < 1000 nM, < 1000 nM and 5000 to 10000 nM, respectively.

As for `NC(=O)[C@H]1CC[C@@H](Nc2ncc3nnn(-c4ccc5ncccc5c4)c3n2)C1` [A189, (1S,3R)-3-(3-quinolin-6-yl-3H-[1,2,3]triazolo[4,5-d]pyrimidin-5-ylamino)-cyclopentanecarboxylic acid amide], the IC50 against GCN2 [1] was < 1000 nM; on GSK3α(h), < 1000 nM; against GCN2 [2] it was 1000 to 5000 nM.

`NC(=O)[C@@H]1CC[C@@H](Nc2ncc3nnn(-c4ccc5ncccc5c4)c3n2)C1` [A190, (1R,3R)-3-(3-quinolin-6-yl-3H-[1,2,3]triazolo[4,5-d]pyrimidin-5-ylamino)-cyclopentanecarboxylic acid amide]: the IC50 is < 1000 nM against GCN2 [1], < 1000 nM at GSK3α(h) and 5000 to 10000 nM on GCN2 [2].

As for `O[C@@H]1CC[C@@H](Nc2ncc3nnn(-c4ccc(-c5cnn(CCN6CCCC6)c5)cc4)c3n2)C1` [A213, (1R,3R)-3-(3-{4-[1-(2-pyrrolidin-1-yl-ethyl)-1H-pyrazol-4-yl]-phenyl}-3H-[1,2,3]triazolo[4,5-d]pyrimidin-5-ylamino)-cyclopentanol], the results for the IC50 against GCN2 [1], on GSK3α(h) and at GCN2 [2] were < 1000 nM, < 1000 nM and 1000 to 5000 nM, respectively.

Turning to `N[C@H]1CC[C@H](Nc2ncc3nnn(-c4ccc(-c5cnn(CCn6cccn6)c5)cc4)c3n2)CC1` [A215, N-(3-{4-[1-(2-pyrazol-1-yl-ethyl)-1H-pyrazol-4-yl]-phenyl}-3H-[1,2,3]triazolo[4,5-d]pyrimidin-5-yl)-cyclohexane-1,4-diamine], the half-inhibitory concentration (IC50) at GCN2 [1] is < 1000 nM; at GSK3α(h), < 1000 nM; against GCN2 [2], 5000 to 10000 nM.

In the case of `NC(=O)[C@H]1CC[C@@H](Nc2ncc3nnn(-c4ccc(-c5cnn(CCN6CCCC6)c5)cc4)c3n2)C1` [A216, (1S,3R)-3-(3-{4-[1-(2-pyrrolidin-1-yl-ethyl)-1H-pyrazol-4-yl]-phenyl}-3H-[1,2,3]triazolo[4,5-d]pyrimidin-5-ylamino)-cyclopentanecarboxylic acid amide], the half-inhibitory concentration (IC50) against GCN2 [1] is < 1000 nM; on GSK3α(h), < 1000 nM; against GCN2 [2] it was 1000 to 5000 nM.
